From patent US12012410B2, “Substituted pyrazolo[1,5-a]pyrazines for spinal muscular atrophy” (REBORNA BIOSCIENCES, INC., priority 2018, dated 2024)
Counter-ions that a name gives are not always drawn.

Test system: FL-SMN mRNA (SMN transcript containing exons 7 and 8)
Assay: Live-cell assay to measure changes in FL-SMN mRNA levels (qPCR) after exposure to the compounds
Assay type: cell-based, human
Details: fibroblasts derived from patients SMA (GM03813); 24 hours incubation
Experimental: In this example, each test compound was administered to cultured cells, and changes in the expression levels of mRNA transcripts of SMN, i.e., FL-SMN containing exons 7 and 8 and Delta7 with exon 7 skipped, were examined using PCR.
Fibroblasts derived from patients SMA (GM03813) (Coriell Cell Repositories) were cultured with passages using DMEM (High Glucose) (Life Technologies) supplemented with 10% FBS (Life Technologies). Cells were seeded in tissue-culture-treated 96-well plates (Corning) at 1.5 or 0.5×10^4 cells/well in 100 μL of medium. The cells were incubated in 5% CO2 for 6 hours, and the medium was replaced with 100 μL of medium (with DMSO, 0.1% final concentration) containing each of the compounds given in the Examples. After additional incubation for 24 hours under the same conditions, the cells were washed once with D-PBS(—) (Wako) and 25 μL/well of the lysis solution (with gDNA Remove) contained in the SuperPrep (registered trademark) Cell Lysis & RT Kit for qPCR (Toyobo life science) was added according to the manufacturer's instructions so that the cells were lysed and the genomic DNA was degraded. Furthermore, 5 μL of the STOP solution (with RNase Inhibitor) contained in the kit was added to provide RNA-containing solutions. Six microliters of the RNA-containing solutions were each mixed with 14 μL of a reverse transcription solution containing transcriptase together with dNTP, random primers and an oligodT primer. Reverse transcription was performed at 37° C. (15 min), 50° C. (5 min), and 98° C. (5 min), to give total cDNAs. The total cDNAs were diluted 30-fold with Ultra-pure water (Invitrogen) to measure the expression levels of FL-SMN, delta7, and GAPDH. For quantitative PCR (qPCR), a PCR solution was prepared according to the instructions of the manufacturer of the THUNDERBIRD (registered trademark) Probe qPCR Mix (Toyobo life science). Five microliters of the diluted total cDNA solutions and oligo DNA standard solutions, each containing either 001-Standard FL-SMN (SEQ ID NO. 1) or 002-Standard delta7 (SEQ ID NO. 2), were each mixed with 10 μL of each of the PCR solutions containing a qPCR probe, primers, and PCR enzyme. […] The oligoDNA standard solutions were prepared as those containing either of 5×10^8, 5×10^7, 5×10^6, 5×10^5, 5×10^4, 5×10^3, 5×10^2, 5×10, 5, or 0 copies. For the oligo DNA standards, primers, and probes, oligonucleotides synthesized by Integrated DNA Technologies, Inc. (IDT) were used. […] FIGS. 3B and 3D show their detection mechanisms. The final concentrations of the primers and probes added were 0.4 μM and 0.15 μM, respectively. The qPCR was performed using the following conditions on a ViiA7 instrument (Applied Biosystems): first stage: 95° C. (1 min)→second stage: 95° C. (15 sec)→third stage: 60° C. (1 min)→40 repeated cycles of the second and third stages. The GAPDH mRNA was used as the internal control, and the commercially available 20×gene expression PCR assay (Life Technologies, 4326317E, Hs99999905_ml) and Standard GAPDH (SEQ ID NO. 7) (see FIG. 1) was used to determine the number of copies of this gene. The measurement values obtained for the samples to be measured were standardized against the respective value obtained for GAPDH.
Using the above-mentioned assays, the activities of the compounds of the Examples were evaluated. Specifically, the percentages of the FL-SMN and delta7 values obtained using DMSO without the compounds and standardized against GAPDH were set as 100% and those of the FL-SMN and delta7 values obtained at the time of administration of the compounds and standardized against GAPDH were calculated. […]

SMILES	Percentage of increase (FL-SMN mRNA standardized against GAPDH, DMSO control set as 100%)
Cc1cn2nc(-c3nc4cc(F)c(C5CCN(C)CC5)cc4c(=O)[nH]3)cc2c(C)n1 [Example 1, 2-(4,6-Dimethylpyrazolo[1,5-a]pyrazin-2-yl)-7-fluoro-6-(1-methylpiperidin-4-yl)quinazolin-4(3H)-one]	**** (equal to or higher than 180%)
Cc1cn2nc(-c3nc4ccc(C5CCN(C)CC5)cc4c(=O)[nH]3)cc2c(C)n1 [Example 2, 2-(4,6-Dimethylpyrazolo[1,5-a]pyrazin-2-yl)-6-(1-methylpiperidin-4-yl)quinazolin-4(3H)-one]	**** (equal to or higher than 180%)
Cc1cn2nc(-c3nc4c(F)cc(C5CCN(C)CC5)cc4c(=O)[nH]3)cc2c(C)n1 [Example 3, 2-(4,6-Dimethylpyrazolo[1,5-α]pyrazin-2-yl)-8-fluoro-6-(1-methylpiperidin-4-yl)quinazolin-4(3H)-one]	**** (equal to or higher than 180%)
Cc1cn2nc(-c3nc4ccc(C5CCN(C)CC5)c(F)c4c(=O)[nH]3)cc2c(C)n1 [Example 4, 2-(4,6-Dimethylpyrazolo[1,5-α]pyrazin-2-yl)-5-fluoro-6-(1-methylpiperidin-4-yl)quinazolin-4(3H)-one]	**** (equal to or higher than 180%)
CCc1nc(C)cn2nc(-c3nc4ccc(N5CCN(C)CC5)cc4c(=O)[nH]3)cc12 [Example 5, 2-(4-Ethyl-6-methylpyrazolo[1,5-α]pyrazin-2-yl)-6-(4-methylpiperazin-1-yl)quinazolin-4(3H)-one]	*** (equal to or higher than 150% but lower than 180%)
Cc1cn2nc(-c3nc4ccc(N5CCN(C)CC5)cc4c(=O)[nH]3)cc2c(C)n1 [Example 6, 2-(4,6-Dimethylpyrazolo[1,5-α]pyrazin-2-yl)-6-(4-methylpiperazin-1-yl)quinazolin-4(3H)-one dihydrochloride]	**** (equal to or higher than 180%)
Cc1cn2nc(-c3nc4cc(F)c(N5CCN(C)CC5)cc4c(=O)[nH]3)cc2c(C)n1 [Example 7, 2-(4,6-Dimethylpyrazolo[1,5-α]pyrazin-2-yl)-7-fluoro-6-(4-methylpiperazin-1-yl)quinazolin-4(3H)-one]	*** (equal to or higher than 150% but lower than 180%)
Cc1cn2cc(-c3ccc4nc(C5CCN(C)CC5)[nH]c(=O)c4c3)ccc2n1 [Example 9, 6-(2-Methylimidazo[1,2-α]pyridin-6-yl)-2-(1-methylpiperidin-4-yl)quinazolin-4(3H)-one]	**** (equal to or higher than 180%)
Cc1cn2cc(-c3ccc4nc(C5CCN(C)CC5)[nH]c(=O)c4c3)cc(F)c2n1 [Example 10, 6-(8-Fluoro-2-methylimidazo[1,2-α]pyridin-6-yl)-2-(1-methylpiperidin-4-yl)quinazolin-4(3H)-one]	**** (equal to or higher than 180%)
Cc1cc2oc(-c3nc4ccc(N5CCN(C)CC5)cc4c(=O)[nH]3)cc2c(C)n1 [Example 11, 2-(4,6-Dimethylfuro[3,2-c]pyridin-2-yl)-6-(4-methylpiperazin-1-yl)quinazolin-4(3H)-one]	*** (equal to or higher than 150% but lower than 180%)
CCN1CCN(c2ccc3nc(-c4cc5c(C)nc(C)cn5n4)[nH]c(=O)c3c2)CC1 [Example 12, 2-(4,6-Dimethylpyrazolo[1,5-a]pyrazin-2-yl)-6-(4-ethylpiperazin-1-yl)quinazolin-4(3H)-one]	**** (equal to or higher than 180%)
Cc1nc2ccc(-c3ccc4nc(C5CCN(C)CC5)[nH]c(=O)c4c3)cc2o1 [Example 13, 6-(2-Methyl-1,3-benzoxazol-6-yl)-2-(1-methylpiperidin-4-yl)quinazolin-4(3H)-one]	**** (equal to or higher than 180%)
Cc1nc2ccc(-c3ccc4nc(C5CCN(C)CC5)[nH]c(=O)c4c3)cc2s1 [Example 14, 6-(2-Methyl-1,3-benzothiazol-6-yl)-2-(1-methylpiperidin-4-yl)quinazolin-4(3H)-one]	*** (equal to or higher than 150% but lower than 180%)
Cc1cn2cc(-c3ccc4nc(C5CCN(C)CC5)[nH]c(=O)c4c3)cc2cn1 [Example 15, 2-(1-Methylpiperidin-4-yl)-6-(3-methylpyrrolo[1,2-α]pyrazin-7-yl)quinazolin-4(3H)-one]	**** (equal to or higher than 180%)
Cc1cn2nc(-c3nc4ccc(N5CCNCC5)cc4c(=O)[nH]3)cc2c(C)n1 [Example 16, 2-(4,6-Dimethylpyrazolo[1,5-α]pyrazin-2-yl)-6-(piperazin-1-yl)quinazolin-4(3H)-one dihydrochloride]	**** (equal to or higher than 180%)
Cc1cn2cc(-c3ccc4nc(C5CCN(C)CC5)[nH]c(=O)c4c3)cc(Cl)c2n1 [Example 17, 6-(8-Chloro-2-methylimidazo[1,2-α]pyridin-6-yl)-2-(1-methylpiperidin-4-yl)quinazolin-4(3H)-one]	*** (equal to or higher than 150% but lower than 180%)
Cc1nc2c(F)cc(-c3ccc4nc(C5CCN(C)CC5)[nH]c(=O)c4c3)cc2o1 [Example 18, 6-(4-Fluoro-2-methyl-1,3-benzoxazol-6-yl)-2-(1-methylpiperidin-4-yl)quinazolin-4(3H)-one]	**** (equal to or higher than 180%)
Cc1cn2cc(-c3cc(C)c4nc(C5CCN(C)CC5)[nH]c(=O)c4c3)ccc2n1 [Example 19, 8-Methyl-6-(2-methylimidazo[1,2-α]pyridin-6-yl)-2-(1-methylpiperidin-4-yl)quinazolin-4(3H)-one]	**** (equal to or higher than 180%)
Cc1cn2cc(-c3ccc4nc(C5CCN(C)CC5)[nH]c(=O)c4c3)cc2c(C)n1 [Example 20, 6-(1,3-Dimethylpyrrolo[1,2-α]pyrazin-7-yl)-2-(1-methylpiperidin-4-yl)quinazolin-4(3H)-one]	**** (equal to or higher than 180%)
Cc1cn2nc(-c3nc4c(C)cc(N5CCN(C)CC5)cc4c(=O)[nH]3)cc2c(C)n1 [Example 21, 2-(4,6-Dimethylpyrazolo[1,5-α]pyrazin-2-yl)-8-methyl-6-(4-methylpiperazin-1-yl)quinazolin-4(3H)-one]	**** (equal to or higher than 180%)
COc1cc(-c2ccc3nc(C4CCN(C)CC4)[nH]c(=O)c3c2)cn2cc(C)nc12 [Example 22, 6-(8-methoxy-2-methylimidazo[1,2-a]pyridine-6-yl)-2-(1-methylpiperidine-4-yl) kinazoline-4 (3H)-one]	**** (equal to or higher than 180%)
Cc1cn2cc(-c3ccc4nc(C5CCN(C)CC5)[nH]c(=O)c4c3)cc(C)c2n1 [Example 23, 6-(2,8-dimethylimidazo[1,2-a]pyridine-6-yl)-2-(1-methylpiperidin-4-yl) kinazoline-4 (3H)—one]	*** (equal to or higher than 150% but lower than 180%)
Cc1nc2c(F)cc(-c3cc(F)c4nc(C5CCN(C)CC5)[nH]c(=O)c4c3)cc2o1 [Example 24, 8-Fluoro-6-(4-fluoro-2-methyl-1,3-benzoxazole 6-yl)-2-(1-methylpiperidin-4-yl) quinazoline 4-(3H)-one]	**** (equal to or higher than 180%)
